# Data reported in ChEMBL document CHEMBL5052819, “Peptide targeting gip and glp-2 receptors for treating bone disorders” (2020).
# Activity calls are given as the source filed them. No cut-off for these calls is given here.
# How the values were obtained:
# RAW264.7 = test: Inhibition of RANKL-induced osteoclastogenesis in mouse RAW264.7 cells measured after 110 hrs by TRAcP staining based assay; type: functional, cell-based; settings: RAW264.7, 110 h
# [1] = Toxicity in ovariectomized BALB/c mouse assessed as effect on body mass at 25 to 100 nmol/kg/day, sc
# HEK293 = test: Activation of GIP/GLP2 receptor transfected in human HEK293 cells assessed as increase in intracellular cAMP level at 1 nM; type: cell-based; settings: filed as activator
# Mus musculus [2] = test: Anti-osteoporosis activity in ovariectomized BALB/c mouse at 25 nmol/kg, sc assessed as increase in acid phosphate content heterogeneity; type: functional
# Mus musculus [3] = test: Anti-osteoporosis activity in ovariectomized BALB/c mouse at 25 nmol/kg/day, sc assessed as reduction in trabecular bone stiffness; type: functional, organism-based
# Mus musculus [4] = test: Anti-osteoporosis activity in ovariectomized BALB/c mouse at 25 nmol/kg, sc assessed as decrease in mean phosphate/amide ratio; type: functional; parameters: scale not given: the % may be the effect or the level left
# Mus musculus [5] = test: Anti-osteoporosis activity in ovariectomized BALB/c mouse at 25 nmol/kg/day, sc assessed as increase in ultimate displacement of cortical bone; type: functional
# [6] = Toxicity in ovariectomized BALB/c mouse at 25 nmol/kg, sc assessed as effect on morphological changes in liver; type: organism-based; settings: in vivo
# Mus musculus [7] = test: Anti-osteoporosis activity in ovariectomized BALB/c mouse at 25 nmol/kg/day, sc assessed as increase in post-yield displacement of cortical bone; type: functional
# Mus musculus [8] = test: Anti-osteoporosis activity in ovariectomized BALB/c mouse at 25 nmol/kg/day, sc assessed as increase in work-to-fracture of cortical bone; type: functional
# Mus musculus [9] = test: Anti-osteoporosis activity in ovariectomized BALB/c mouse at 25 nmol/kg/day, sc assessed as effect on cortical bone microarchitecture; type: functional, organism-based
# Mus musculus [10] = test: Anti-osteoporosis activity in ovariectomized BALB/c mouse at 25 nmol/kg, sc assessed as increase in collagen maturity heterogeneity; type: functional
# Mus musculus [11] = test: Anti-osteoporosis activity in ovariectomized BALB/c mouse at 25 nmol/kg, sc assessed as increase in collagen maturity; type: functional
# [12] = Toxicity in ovariectomized BALB/c mouse at 25 nmol/kg, sc assessed as effect on morphological changes in pancreas; type: organism-based; settings: in vivo
# [13] = Toxicity in ovariectomized BALB/c mouse assessed as effect on body mass at 25 nmol/kg/day, sc; settings: in vivo
# MC3T3-E1 = test: Cytotoxicity against mouse MC3T3-E1 cells at 1 uM measured after 24 hrs by trypan blue assay; type: toxicity, cell-based; settings: mc3t3-e1, 24 h
smiles,measurement,setting,value
CC[C@H](C)[C@H](NC(=O)[C@H](CO)NC(=O)[C@H](Cc1ccccc1)NC(=O)[C@H](CC(=O)O)NC(=O)[C@H](CO)NC(=O)[C@@H](NC(=O)[C@H](Cc1ccccc1)NC(=O)[C@H](CO)NC(=O)CNC(=O)[C@H](CCC(=O)O)NC(=O)CNC(=O)[C@@H](N)Cc1cnc[nH]1)C(C)C)C(=O)N[C@@H](C)C(=O)N[C@@H](CC(C)C)C(=O)N[C@@H](CC(=O)O)C(=O)N[C@@H](CCCCN)C(=O)N[C@@H](CC(C)C)C(=O)N[C@@H](C)C(=O)N[C@@H](C)C(=O)N[C@@H](CCCNC(=N)N)C(=O)N[C@@H](CC(=O)O)C(=O)N[C@@H](Cc1ccccc1)C(=O)N[C@H](C(=O)N[C@@H](CC(N)=O)C(=O)N[C@@H](Cc1c[nH]c2ccccc12)C(=O)N[C@@H](CC(C)C)C(=O)N[C@@H](CC(C)C)C(=O)N[C@@H](CCC(N)=O)C(=O)N[C@H](C(=O)N[C@@H](CCCCN)C(N)=O)[C@@H](C)O)C(C)C,IC50,RAW264.7,0.18 nM
CC(C)C[C@H](NC(=O)[C@H](CCCCN)NC(=O)[C@H](CC(=O)O)NC(=O)[C@H](CC(C)C)NC(=O)[C@@H](NC(=O)[C@@H](NC(=O)[C@H](CO)NC(=O)[C@H](CC(C)C)NC(=O)[C@H](CC(=O)O)NC(=O)[C@H](CO)NC(=O)[C@@H](NC(=O)[C@H](Cc1ccccc1)NC(=O)[C@H](CO)NC(=O)CNC(=O)[C@H](CCC(=O)O)NC(=O)CNC(=O)[C@@H](N)Cc1cnc[nH]1)C(C)C)C(C)C)C(C)C)C(=O)N[C@@H](C)C(=O)N[C@@H](C)C(=O)N[C@@H](CCCNC(=N)N)C(=O)N[C@@H](CC(=O)O)C(=O)N[C@@H](Cc1ccccc1)C(=O)N[C@H](C(=O)N[C@@H](CC(N)=O)C(=O)N[C@@H](Cc1c[nH]c2ccccc12)C(=O)N[C@@H](CC(C)C)C(=O)N[C@@H](CC(C)C)C(=O)N[C@@H](CCC(N)=O)C(=O)N[C@H](C(=O)N[C@@H](CCCCN)C(N)=O)[C@@H](C)O)C(C)C,IC50,RAW264.7,0.0107 nM
CC[C@H](C)[C@H](NC(=O)[C@H](CO)NC(=O)[C@H](CCSC)NC(=O)[C@H](CC(=O)O)NC(=O)[C@H](CO)NC(=O)[C@@H](NC(=O)[C@H](Cc1ccccc1)NC(=O)[C@H](CO)NC(=O)CNC(=O)[C@H](CCC(=O)O)NC(=O)CNC(=O)[C@@H](N)Cc1cnc[nH]1)C(C)C)C(=O)N[C@H](C(=O)N[C@@H](CC(C)C)C(=O)N[C@@H](CC(=O)O)C(=O)N[C@@H](CCCCN)C(=O)N[C@@H](CC(C)C)C(=O)N[C@@H](C)C(=O)N[C@@H](C)C(=O)N[C@@H](CCCNC(=N)N)C(=O)N[C@@H](CC(=O)O)C(=O)N[C@@H](Cc1ccccc1)C(=O)N[C@H](C(=O)N[C@@H](CC(N)=O)C(=O)N[C@@H](Cc1c[nH]c2ccccc12)C(=O)N[C@@H](CC(C)C)C(=O)N[C@@H](CC(C)C)C(=O)N[C@@H](CCC(N)=O)C(=O)N[C@H](C(=O)N[C@@H](CCCCN)C(N)=O)[C@@H](C)O)C(C)C)C(C)C,IC50,[1],Non-Toxic
CC(C)C[C@H](NC(=O)[C@H](CCCCN)NC(=O)[C@H](CC(=O)O)NC(=O)[C@H](CC(C)C)NC(=O)[C@@H](NC(=O)[C@@H](NC(=O)[C@H](CO)NC(=O)[C@H](Cc1ccccc1)NC(=O)[C@H](CC(=O)O)NC(=O)[C@H](CO)NC(=O)[C@@H](NC(=O)[C@H](Cc1ccccc1)NC(=O)[C@H](CO)NC(=O)CNC(=O)[C@H](CCC(=O)O)NC(=O)CNC(=O)[C@@H](N)Cc1cnc[nH]1)C(C)C)C(C)C)C(C)C)C(=O)N[C@@H](C)C(=O)N[C@@H](C)C(=O)N[C@@H](CCCNC(=N)N)C(=O)N[C@@H](CC(=O)O)C(=O)N[C@@H](Cc1ccccc1)C(=O)N[C@H](C(=O)N[C@@H](CC(N)=O)C(=O)N[C@@H](Cc1c[nH]c2ccccc12)C(=O)N[C@@H](CC(C)C)C(=O)N[C@@H](CC(C)C)C(=O)N[C@@H](CCC(N)=O)C(=O)N[C@H](C(=O)N[C@@H](CCCCN)C(N)=O)[C@@H](C)O)C(C)C,IC50,RAW264.7,0.0096 nM
CC[C@H](C)[C@H](NC(=O)[C@H](CO)NC(=O)[C@H](Cc1ccc(O)cc1)NC(=O)[C@H](CC(=O)O)NC(=O)[C@H](CO)NC(=O)[C@@H](NC(=O)[C@H](Cc1ccccc1)NC(=O)[C@@H](NC(=O)CNC(=O)[C@H](CCC(=O)O)NC(=O)[C@@H](C)NC(=O)[C@@H](N)Cc1ccc(O)cc1)[C@@H](C)O)[C@@H](C)CC)C(=O)N[C@@H](C)C(=O)N[C@@H](CCSC)C(=O)N[C@@H](CC(=O)O)C(=O)N[C@@H](CCCCN)C(=O)N[C@H](C(=O)N[C@@H](Cc1cnc[nH]1)C(=O)N[C@@H](CCC(N)=O)C(=O)N[C@@H](CCC(N)=O)C(=O)N[C@@H](CC(=O)O)C(=O)N[C@@H](Cc1ccccc1)C(=O)N[C@H](C(=O)N[C@@H](CC(N)=O)C(=O)N[C@@H](Cc1c[nH]c2ccccc12)C(=O)N[C@@H](CC(C)C)C(=O)N[C@@H](CC(C)C)C(=O)N[C@@H](C)C(=O)N[C@@H](CCC(N)=O)C(=O)N[C@@H](CCCCN)C(N)=O)C(C)C)[C@@H](C)CC,IC50,RAW264.7,0.0401 nM
same,Activity,HEK293,Active
CSCC[C@H](NC(=O)[C@H](CC(=O)O)NC(=O)[C@H](CO)NC(=O)[C@@H](NC(=O)[C@H](Cc1ccccc1)NC(=O)[C@H](CO)NC(=O)CNC(=O)[C@H](CCC(=O)O)NC(=O)CNC(=O)[C@@H](N)Cc1cnc[nH]1)C(C)C)C(=O)N[C@@H](CO)C(=O)N[C@H](C(=O)N[C@H](C(=O)N[C@@H](CC(C)C)C(=O)N[C@@H](CC(=O)O)C(=O)N[C@@H](CCCCN)C(=O)N[C@@H](CC(C)C)C(=O)N[C@@H](C)C(=O)N[C@@H](C)C(=O)N[C@@H](CCCNC(=N)N)C(=O)N[C@@H](CC(=O)O)C(=O)N[C@@H](Cc1ccccc1)C(=O)N[C@H](C(=O)N[C@@H](CC(N)=O)C(=O)N[C@@H](Cc1c[nH]c2ccccc12)C(=O)N[C@@H](CC(C)C)C(=O)N[C@@H](CC(C)C)C(=O)N[C@@H](CCC(N)=O)C(=O)N[C@H](C(=O)N[C@@H](CCCCN)C(N)=O)[C@@H](C)O)C(C)C)C(C)C)C(C)C,IC50,RAW264.7,0.0116 nM
CC[C@H](C)[C@H](NC(=O)[C@H](CO)NC(=O)[C@H](Cc1ccccc1)NC(=O)[C@H](CC(=O)O)NC(=O)[C@H](CO)NC(=O)[C@@H](NC(=O)[C@H](Cc1ccccc1)NC(=O)[C@H](CO)NC(=O)CNC(=O)[C@H](CCC(=O)O)NC(=O)CNC(=O)[C@@H](N)Cc1cnc[nH]1)[C@@H](C)O)C(=O)N[C@@H](C)C(=O)N[C@@H](CC(C)C)C(=O)N[C@@H](CC(=O)O)C(=O)N[C@@H](CCCCN)C(=O)N[C@@H](CC(C)C)C(=O)N[C@@H](C)C(=O)N[C@@H](C)C(=O)N[C@@H](CCCNC(=N)N)C(=O)N[C@@H](CC(=O)O)C(=O)N[C@@H](Cc1ccccc1)C(=O)N[C@H](C(=O)N[C@@H](CC(N)=O)C(=O)N[C@@H](Cc1c[nH]c2ccccc12)C(=O)N[C@@H](CC(C)C)C(=O)N[C@@H](CC(C)C)C(=O)N[C@@H](CCC(N)=O)C(=O)N[C@H](C(=O)N[C@@H](CCCCN)C(N)=O)[C@@H](C)O)C(C)C,IC50,RAW264.7,0.0168 nM
CC[C@H](C)[C@H](NC(=O)[C@H](CO)NC(=O)[C@H](CCSC)NC(=O)[C@H](CC(=O)O)NC(=O)[C@H](CO)NC(=O)CNC(=O)[C@H](Cc1ccccc1)NC(=O)[C@H](CO)NC(=O)CNC(=O)[C@H](CCC(=O)O)NC(=O)CNC(=O)[C@@H](N)Cc1cnc[nH]1)C(=O)N[C@@H](C)C(=O)N[C@@H](CC(C)C)C(=O)N[C@@H](CC(=O)O)C(=O)N[C@@H](CCCCN)C(=O)N[C@@H](CC(C)C)C(=O)N[C@@H](C)C(=O)N[C@@H](C)C(=O)N[C@@H](CCCNC(=N)N)C(=O)N[C@@H](CC(=O)O)C(=O)N[C@@H](Cc1ccccc1)C(=O)N[C@H](C(=O)N[C@@H](CC(N)=O)C(=O)N[C@@H](Cc1c[nH]c2ccccc12)C(=O)N[C@@H](CC(C)C)C(=O)N[C@@H](CC(C)C)C(=O)N[C@@H](CCC(N)=O)C(=O)N[C@H](C(=O)N[C@@H](CCCCN)C(=O)N[C@H](C(=O)N[C@H](C(=O)N[C@@H](CC(=O)O)C(N)=O)[C@@H](C)O)[C@@H](C)CC)[C@@H](C)O)C(C)C,Activity,Mus musculus [2],21%
same,IC50,RAW264.7,0.0182 nM
same,Activity,Mus musculus [3],Active
same,Activity,Mus musculus [4],6%
same,Activity,HEK293,Active
same,Activity,Mus musculus [5],34%
same,Activity,[6],Non-Toxic
same,Activity,Mus musculus [7],70%
same,Activity,Mus musculus [8],37%
same,Activity,Mus musculus [9],inactive
same,Activity,Mus musculus [10],28%
same,Activity,Mus musculus [11],10%
same,Activity,[12],Non-Toxic
same,Activity,[13],Non-Toxic
same,Activity,MC3T3-E1,Non-Toxic
CC[C@H](C)[C@H](NC(=O)[C@H](CO)NC(=O)[C@H](CCSC)NC(=O)[C@H](CCC(=O)O)NC(=O)[C@H](CO)NC(=O)[C@@H](NC(=O)[C@H](Cc1ccccc1)NC(=O)[C@H](CO)NC(=O)CNC(=O)[C@H](CCC(=O)O)NC(=O)CNC(=O)[C@@H](N)Cc1cnc[nH]1)C(C)C)C(=O)N[C@H](C(=O)N[C@@H](CC(C)C)C(=O)N[C@@H](CC(=O)O)C(=O)N[C@@H](CCCCN)C(=O)N[C@@H](CC(C)C)C(=O)N[C@@H](C)C(=O)N[C@@H](C)C(=O)N[C@@H](CCCNC(=N)N)C(=O)N[C@@H](CC(=O)O)C(=O)N[C@@H](Cc1ccccc1)C(=O)N[C@H](C(=O)N[C@@H](CC(N)=O)C(=O)N[C@@H](Cc1c[nH]c2ccccc12)C(=O)N[C@@H](CC(C)C)C(=O)N[C@@H](CC(C)C)C(=O)N[C@@H](CCC(N)=O)C(=O)N[C@H](C(=O)N[C@@H](CCCCN)C(N)=O)[C@@H](C)O)C(C)C)C(C)C,IC50,RAW264.7,4.63 nM
